One compound from article PMC8500670, “A selective WDR5 degrader inhibits acute myeloid leukemia in patient-derived mouse models” (Science translational medicine, 2021) can be followed below.

Read-outs that look alike come from different tables or passages of the source.

Holding throughout (assay): biochemical
What all share (parameters): protein methyltransferase selectivity panel, enzyme activity relative to DMSO controls, single concentration in duplicate

In assay [1] the target is PRMT3 (Homo sapiens, UniProt O60678). The conditions noted are these: Substrate:=Histone H4. How it is done: (§1) We next assessed selectivity of MS67 against 22 protein methyltransferases (table S2) and a broad panel of common drug targets including 45 kinases (table S3) and 44 G protein–coupled receptors (GPCR), ion channels, and transporters (table S4). […] We subsequently determined that MS67 had moderate binding affinity (Ki = 1.0 ± 0.8 μM) to Sigma 2 receptor (fig. S10).
Sequence of PRMT3 (O60678 whole entry): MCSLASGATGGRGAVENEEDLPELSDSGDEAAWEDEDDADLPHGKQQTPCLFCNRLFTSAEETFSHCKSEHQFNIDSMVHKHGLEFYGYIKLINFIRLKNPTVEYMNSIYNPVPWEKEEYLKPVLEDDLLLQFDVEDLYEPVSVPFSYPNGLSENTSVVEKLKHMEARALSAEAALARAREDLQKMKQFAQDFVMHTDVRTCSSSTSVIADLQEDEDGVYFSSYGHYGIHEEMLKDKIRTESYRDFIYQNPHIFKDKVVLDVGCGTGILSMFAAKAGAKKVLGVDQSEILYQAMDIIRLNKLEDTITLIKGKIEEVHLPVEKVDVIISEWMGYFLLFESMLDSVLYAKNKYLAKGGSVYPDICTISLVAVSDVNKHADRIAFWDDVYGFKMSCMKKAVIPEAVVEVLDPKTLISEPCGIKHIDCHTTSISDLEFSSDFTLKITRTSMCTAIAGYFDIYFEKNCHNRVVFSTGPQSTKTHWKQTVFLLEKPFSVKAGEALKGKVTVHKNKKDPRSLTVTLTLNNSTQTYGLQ

Assay [2] concerns the target DOT1L (Homo sapiens, UniProt Q8TEK3). Conditions: Substrate:=Nucleosomes. The method, then:
as §1

In assay [3] the target is T1, SMYD3 (Homo sapiens, UniProt Q9H7B4).
T1 sequence (Q9H7B4 1-428): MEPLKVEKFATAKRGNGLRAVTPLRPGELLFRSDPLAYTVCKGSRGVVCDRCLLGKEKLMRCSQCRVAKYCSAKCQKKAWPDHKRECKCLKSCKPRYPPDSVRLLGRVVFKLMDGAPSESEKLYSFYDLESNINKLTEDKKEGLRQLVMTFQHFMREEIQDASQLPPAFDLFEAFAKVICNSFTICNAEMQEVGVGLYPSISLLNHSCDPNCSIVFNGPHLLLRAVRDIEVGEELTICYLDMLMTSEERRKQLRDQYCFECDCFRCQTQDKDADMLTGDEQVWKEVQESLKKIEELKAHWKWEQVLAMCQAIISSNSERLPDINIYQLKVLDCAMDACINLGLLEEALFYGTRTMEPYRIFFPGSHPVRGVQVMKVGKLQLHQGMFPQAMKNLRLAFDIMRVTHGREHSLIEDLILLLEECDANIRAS
The conditions noted are these: Substrate:=MEKK2. How it is done: as §1

The target in assay [4] is T2, SUV39H1 (Homo sapiens, UniProt O43463).
T2 sequence (O43463 1-412): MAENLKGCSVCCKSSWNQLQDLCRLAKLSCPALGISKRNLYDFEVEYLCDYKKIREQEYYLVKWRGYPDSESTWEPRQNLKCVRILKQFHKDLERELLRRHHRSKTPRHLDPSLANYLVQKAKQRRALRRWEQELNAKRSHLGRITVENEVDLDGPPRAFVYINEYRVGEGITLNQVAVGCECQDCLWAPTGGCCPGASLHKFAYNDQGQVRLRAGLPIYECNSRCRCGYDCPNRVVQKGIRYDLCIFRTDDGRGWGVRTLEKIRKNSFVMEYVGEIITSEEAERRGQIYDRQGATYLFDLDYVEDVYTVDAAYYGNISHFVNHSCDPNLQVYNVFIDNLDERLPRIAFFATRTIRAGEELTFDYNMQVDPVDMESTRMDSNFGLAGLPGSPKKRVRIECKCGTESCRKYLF
The conditions noted are these: Substrate:=Histone H3. How it is done:
as §1

For assay [5], the target named is PRMT1 (Homo sapiens, UniProt Q99873). The conditions noted are these: Substrate:=Histone H4. How it is done: as §1
Sequence of PRMT1 (Q99873 whole entry): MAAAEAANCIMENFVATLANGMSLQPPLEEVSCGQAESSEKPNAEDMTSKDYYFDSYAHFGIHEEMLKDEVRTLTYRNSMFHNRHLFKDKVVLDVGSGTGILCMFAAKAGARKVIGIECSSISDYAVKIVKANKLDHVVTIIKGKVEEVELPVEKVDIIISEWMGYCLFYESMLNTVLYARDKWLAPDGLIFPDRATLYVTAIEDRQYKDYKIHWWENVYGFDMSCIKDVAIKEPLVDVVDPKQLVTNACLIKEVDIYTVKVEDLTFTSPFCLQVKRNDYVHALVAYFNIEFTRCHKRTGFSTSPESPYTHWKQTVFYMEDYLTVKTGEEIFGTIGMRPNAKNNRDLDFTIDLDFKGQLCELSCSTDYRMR
Assay [6] deals with T3, PRMT7 (Homo sapiens, UniProt Q9NVM4).
T3 sequence (Q9NVM4 1-692): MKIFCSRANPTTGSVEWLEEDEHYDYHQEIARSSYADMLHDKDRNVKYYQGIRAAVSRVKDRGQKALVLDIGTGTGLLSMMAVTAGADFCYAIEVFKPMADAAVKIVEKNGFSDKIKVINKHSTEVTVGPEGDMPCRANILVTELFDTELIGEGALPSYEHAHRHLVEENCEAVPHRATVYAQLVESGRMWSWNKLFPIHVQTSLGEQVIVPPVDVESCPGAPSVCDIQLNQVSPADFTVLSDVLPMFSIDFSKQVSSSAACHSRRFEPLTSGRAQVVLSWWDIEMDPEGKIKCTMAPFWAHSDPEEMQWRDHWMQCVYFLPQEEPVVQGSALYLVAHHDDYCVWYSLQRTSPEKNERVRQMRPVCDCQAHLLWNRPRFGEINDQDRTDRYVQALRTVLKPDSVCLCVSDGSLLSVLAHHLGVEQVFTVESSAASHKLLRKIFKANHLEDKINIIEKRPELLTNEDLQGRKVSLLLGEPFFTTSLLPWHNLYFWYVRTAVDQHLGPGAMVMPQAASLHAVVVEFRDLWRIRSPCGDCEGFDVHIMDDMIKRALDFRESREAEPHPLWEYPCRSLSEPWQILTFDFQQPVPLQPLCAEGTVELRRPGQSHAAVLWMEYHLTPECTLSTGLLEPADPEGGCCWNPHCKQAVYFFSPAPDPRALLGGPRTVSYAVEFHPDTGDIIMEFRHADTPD
Conditions: Substrate:=GST-GAR. How it is done: as §1

Assay [7] addresses PRMT8 (Homo sapiens, UniProt Q9NR22). The conditions noted are these: Substrate:=Histone H4. How it is done: as §1
Setting [8] is: read-out: Enzyme % Activity (relative to DMSO controls) / MS67 / 10 / Data 1:
The mark [9] stands for this setting: read-out: Enzyme % Activity (relative to DMSO controls) / MS67 / 10 / Data 2:

Sequence of DOT1L (Q8TEK3 whole entry): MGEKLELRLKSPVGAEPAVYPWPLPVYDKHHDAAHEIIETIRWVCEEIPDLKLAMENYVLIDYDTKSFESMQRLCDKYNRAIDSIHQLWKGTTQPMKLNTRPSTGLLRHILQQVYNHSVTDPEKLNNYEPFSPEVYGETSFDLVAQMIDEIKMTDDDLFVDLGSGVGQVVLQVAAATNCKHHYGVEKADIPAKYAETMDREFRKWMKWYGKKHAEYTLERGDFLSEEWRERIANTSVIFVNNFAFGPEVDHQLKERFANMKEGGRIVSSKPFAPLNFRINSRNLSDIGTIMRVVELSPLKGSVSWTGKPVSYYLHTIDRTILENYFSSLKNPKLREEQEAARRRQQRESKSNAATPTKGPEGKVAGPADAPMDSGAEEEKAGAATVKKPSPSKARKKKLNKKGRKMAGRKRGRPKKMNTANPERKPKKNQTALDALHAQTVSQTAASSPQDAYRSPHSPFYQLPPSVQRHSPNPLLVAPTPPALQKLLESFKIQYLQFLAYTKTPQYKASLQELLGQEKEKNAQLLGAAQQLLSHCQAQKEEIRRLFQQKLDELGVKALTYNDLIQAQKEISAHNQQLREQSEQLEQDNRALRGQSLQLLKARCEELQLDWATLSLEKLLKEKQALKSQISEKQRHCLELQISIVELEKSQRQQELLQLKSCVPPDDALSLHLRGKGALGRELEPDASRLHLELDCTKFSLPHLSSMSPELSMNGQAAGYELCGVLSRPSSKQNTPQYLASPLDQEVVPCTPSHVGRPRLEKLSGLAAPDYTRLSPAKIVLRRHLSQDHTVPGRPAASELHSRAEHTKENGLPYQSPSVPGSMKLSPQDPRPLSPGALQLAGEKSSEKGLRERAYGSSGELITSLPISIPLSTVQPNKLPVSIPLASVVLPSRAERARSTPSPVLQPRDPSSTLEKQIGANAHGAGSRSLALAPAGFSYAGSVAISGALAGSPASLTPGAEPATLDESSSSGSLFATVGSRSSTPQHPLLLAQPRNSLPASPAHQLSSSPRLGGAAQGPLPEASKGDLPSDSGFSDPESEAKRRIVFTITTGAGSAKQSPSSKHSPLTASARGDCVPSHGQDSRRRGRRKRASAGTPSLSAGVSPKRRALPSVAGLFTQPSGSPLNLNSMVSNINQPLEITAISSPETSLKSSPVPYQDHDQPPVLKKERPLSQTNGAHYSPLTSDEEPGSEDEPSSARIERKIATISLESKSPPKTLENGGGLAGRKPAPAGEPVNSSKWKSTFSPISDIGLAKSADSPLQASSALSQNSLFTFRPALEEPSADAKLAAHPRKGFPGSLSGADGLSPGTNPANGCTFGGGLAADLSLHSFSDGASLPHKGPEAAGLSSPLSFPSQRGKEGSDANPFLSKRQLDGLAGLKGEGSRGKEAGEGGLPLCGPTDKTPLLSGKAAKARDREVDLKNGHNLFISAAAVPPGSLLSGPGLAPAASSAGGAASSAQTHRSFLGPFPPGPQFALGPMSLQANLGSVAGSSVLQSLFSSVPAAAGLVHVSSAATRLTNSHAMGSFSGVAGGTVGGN
Sequence of PRMT8 (Q9NR22 whole entry): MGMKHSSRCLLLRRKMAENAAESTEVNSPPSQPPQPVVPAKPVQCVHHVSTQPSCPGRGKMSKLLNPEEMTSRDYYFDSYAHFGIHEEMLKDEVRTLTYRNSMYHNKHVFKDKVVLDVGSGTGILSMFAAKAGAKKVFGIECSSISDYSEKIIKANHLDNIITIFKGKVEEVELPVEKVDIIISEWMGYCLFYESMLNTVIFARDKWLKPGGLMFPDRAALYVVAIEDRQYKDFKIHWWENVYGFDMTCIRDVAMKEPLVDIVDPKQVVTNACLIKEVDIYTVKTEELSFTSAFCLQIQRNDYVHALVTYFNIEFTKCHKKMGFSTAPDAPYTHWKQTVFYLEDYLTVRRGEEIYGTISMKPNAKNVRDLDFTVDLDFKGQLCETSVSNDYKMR

Turning to `Cc1ncsc1-c1ccc([C@H](C)NC(=O)[C@@H]2C[C@@H](O)CN2C(=O)[C@@H](NC(=O)CNC(=O)c2ccc(F)c(-c3ccc(N4C[C@@H](C)N(C)[C@@H](C)C4)c(NC(=O)c4c[nH]c(=O)cc4C(F)(F)F)c3)c2)C(C)(C)C)cc1` [MS67], the remaining activity at 10 µM in assay [1] (setting [8]) was determined as 92%; in assay [1] (setting [9]), 102%; in assay [2] (setting [8]) it was 95.8%; in assay [2] (setting [9]) it was 92.3%; in assay [3] (setting [8]), 103%; in assay [3] (setting [9]) it was 116%. Moreover, the remaining activity at 10 µM turned out to be 96% in assay [4] (setting [8]); 105% in assay [4] (setting [9]); 98.9% in assay [5] (setting [8]); 96% in assay [5] (setting [9]); 100% in assay [6] (setting [8]); 103% in assay [6] (setting [9]). In addition, the figures for the remaining activity at 10 µM in assay [7] (setting [8]) and in assay [7] (setting [9]) were 102% and 98.1%, respectively.
